Laboratory results from US7435721B2, “Transport peptides such as C-terminal Erns peptide and analogues thereof” (Pepscan Systems B.V., priority 2000, dated 2008).
*: point of attachment. Biotin = O=C1N[C@H]2[C@H](CS[C@H]2CCCCC(=O)*)N1

system: live cells in suspension or subconfluent monolayers; type: cell-based

Row | Substance | Concentration (translocation activity of transport peptides) | Concentration (translocation activity), mapping of restrictocin L3 loop
1 | Biotin-KCPSRRPKR-NH2 [Alpha virus E3] | 3.0 µM | –
2 | Biotin-KGRTPIKFGKADCDRPPKHSQNGMGK-NH2 | – | 3.0 µM
3 | Biotin-KKPGKKTTTKPTKK-NH2 [MDS-23] | 0.3 µM | –
4 | Biotin-KKPGKKTTTKPTKKPTIKTTKK-NH2 [MDS-09] | 0.3 µM | –
5 | Biotin-KKPTIKTTKK-NH2 [MDS-37] | 0.3 µM | –
6 | Biotin-KLIKGRTPIKFGKADCDRPPKHSGK-NH2 | – | 0.3 µM
7 | Biotin-KLIKGRTPIKFGKADCDRPPKHSQNGK-NH2 | – | 0.3 µM
8 | Biotin-KLIKGRTPIKFGKADCDRPPKHSQNGMGK-NH2 | – | 0.3 µM
9 | Biotin-KLIKGRTPIKFGKARCRRPPKHSGK-NH2 | – | 0.3 µM
10 | Biotin-KRIPNKKPGKK-NH2 [MDS-34] | 0.03 µM | –
11 | Biotin-KRIPNKKPGKKT-NH2 [MDP-32] | 0.03 µM | –
